Laboratory results published in patent US20110301233A1, “Novel Polyisoprenylated Benzophenone Derivatives from Garcinia paucinervis” (priority 2010, published 2011).

Legend:
Assay type in all cases: cell-based
HeLa-C3 cells [1] = assay: Apoptosis-inducing effect: caspase-3 activation, YFP/CFP emission ratio (FRET biosensor) in HeLa-C3 cells; conditions: for Apoptotic effect at 25 μM / Apoptotic effect at 50 μM / Apoptotic effect at 100 μM: 72 h
Method: The biological activity of Compounds 1-4 was evaluated for apoptosis-inducing effects using genetically engineered HeLa-C3 cells that can produce a fluorescent biosensor capable of detecting caspase-3 activation. These cells emit a green light under normal growth conditions and change to a blue light when caspase-3 is activated during apoptosis to cleave the sensor protein inside the cells. This color change allows one to use a fluorescent plate reader to directly detect the activation level of caspase-3 in HeLa-C3 cells during the course of the compound treatment in a noninvasive way. Based on our previous test results, the emission ratio of YFP (yellow fluorescent protein)/CFP (cyanfluorescent proteins) is usually between 6 and 8 in normal cells, and this ratio will decrease to a value below 3 if a compound can activate caspase-3 and kill cancer cells. Therefore, any compound that can reduce the YFP/CFP emission ratio to a value below 3 is considered positive in activating apoptosis.
Bioassay: The bioassay method was described in our previous paper with some modifications. All the testing samples were dissolved in DMSO to make stock solutions. The concentration of each stock was at least 1000 times higher than the working concentration. HeLa-C3 cells, which can detect apoptotic cell death involving caspase activation, were cultured in minimum essential medium (MEM) containing 10% fetal bovine serum, 100 U/ml penicillin, […] streptomycin, in a 5% CO2 humidity incubator at 37° C. The sample well for apoptotic activity testing was prepared by seeding a well on a 96-well plate with 7500 HeLa-C3 cells suspended in 100 μl culture medium. After 12-16 h incubation, the old medium was removed and 100 μl freshly prepared culture medium containing the testing sample at a certain working concentration was added to both the sample well and the corresponding background well. Culture medium containing 0.1% DMSO was the negative control while 500 nM paclitaxel was the positive control. After that, the plate was read repeatedly by a Perkin-Elmer Victor reader with excitation wavelength at 440±10 nm and emission wavelength at 486±8 nm for CFP (cyan fluorescent protein) and 535±8 nm for YFP (yellow fluorescent protein) at indicated time points. The data acquisition duration was up to 72 h. The YFP/CFP emission ratio was then calculated. The background fluorescence was measured from the wells containing only medium. After subtracting the background fluorescence from the recorded signal, net YFP and CFP readings were obtained. In this paper, Y/C emission ratio is used to represent the effect of FRET, which is equal to the net YFP reading divided by the net CFP reading from the same well. If YFP/CFP emission ratio was reduced below 3, the testing sample was considered as a good apoptotic inducer at that concentration. All samples were tested in triplicate. The whole experiment was repeated for three times.

HeLa-C3 cells [2] = assay: Cell morphology changes during compound treatment (FIG. 5)
Method: Various cell morphologies were recorded at the indicated time points. The control cells have normal attached cell morphology through the course of the experiment. Cells have shrinkage and detached morphology when they were treated with either the anticancer drug paclitaxel or other compounds, confirming their ability to kill cancer cells.
In addition to detecting the caspase activation using our HeLa-C3 cells, the cell morphology changes was also examined after the treatment of the tested compounds.

HeLa cells = assay: MTT assay, HeLa cell growth inhibition; conditions: for IC50: HeLa cells treated for 72 h, MTT; for HeLa cell growth inhibiting effect: HeLa cells, 72 h, IC50 below or near 10
Method: IC50 of four new compounds was measured using MTT assay. MTT powder was dissolved in PBS at a concentration of 5 mg/mL. For MTT assay, 10 μL of MTT solution was added into each well of a 96-well plate. After 2 h incubation at 37° C., 100 μL 10% SDS solution with 0.01 M HCl was added to dissolve the purple crystals. After 24 h incubation, the optical density (OD) readings at 595 nm were measured using a plate reader. Firstly, 2,500 HeLa cells suspended in 100 μL MEM medium were seeded respectively in a 96-well plate. After 24 h incubation, fresh medium that contained various concentrations of each compound were added into the 96-well plate and changed the old medium. The concentrations applied were ranged from 100 μM to 1.5625 μM, which was achieved by doing two-fold dilutions for 6 times. The OD values of the control group at 0 h and 72 h together with the compound treated groups at 72 h from the MTT assay were measured using a plate reader. IC50 is the concentration of a compound inhibiting 50% of the cell growth.

| IC50 (HeLa cells) | SMILES | Apoptotic effect at 25 μM (HeLa-C3 cells [1]) | Apoptotic effect at 50 μM (HeLa-C3 cells [1]) | Apoptotic effect at 100 μM (HeLa-C3 cells [1]) | cell morphology (HeLa-C3 cells [2]; 25 μM, 24, 48 and 72 h) | HeLa cell growth inhibiting effect (HeLa cells) | caspase-3 activation (HeLa-C3 cells [1]; within 72 h at 100 μM and 50 μM) | cell morphology (HeLa-C3 cells [2]; 50 μM, 24, 48 and 72 h) | cell morphology (HeLa-C3 cells [2]; 500 nM, positive control) |
| --- | --- | --- | --- | --- | --- | --- | --- | --- | --- |
| 5.8 ± 0.6 µM | C=C1CCCC(C)(C)[C@H]1C[C@H]1C[C@@]23CC(C(C)(C)O)OC2=C(C(=O)c2ccc(O)c(O)c2)C(=O)[C@](CC=C(C)C)(C3=O)C1(C)C (relative stereo) [Compound 4, Paucinone D] | + (“+” means the YFP/CFP emission ratio of compound treated HeLa-C3 cells was below 3 at 72 h.) | + (“+” means the YFP/CFP emission ratio of compound treated HeLa-C3 cells was below 3 at 72 h.) | + (“+” means the YFP/CFP emission ratio of compound treated HeLa-C3 cells was below 3 at 72 h.) | cell shrinkage | strong HeLa cell growth inhibiting effects |  |  |  |
| 8.2 ± 0.8 µM | CC(C)=CC[C@H]1C[C@@]23CC4(CCC(C)(C)C[C@@]4(C)O)OC2=C(C(=O)c2ccc(O)c(O)c2)C(=O)[C@](CC=C(C)C)(C3=O)C1(C)C (relative stereo) [Compound 2, Paucinone B] | + (“+” means the YFP/CFP emission ratio of compound treated HeLa-C3 cells was below 3 at 72 h.) | + (“+” means the YFP/CFP emission ratio of compound treated HeLa-C3 cells was below 3 at 72 h.) | + (“+” means the YFP/CFP emission ratio of compound treated HeLa-C3 cells was below 3 at 72 h.) | cell shrinkage | strong HeLa cell growth inhibiting effects |  |  |  |
| 10 ± 0.5 µM | CC(C)=CC[C@H]1C[C@@]23CC4(CCC(C)(C)C[C@]4(C)O)OC2=C(C(=O)c2ccc(O)c(O)c2)C(=O)[C@](CC=C(C)C)(C3=O)C1(C)C (relative stereo) [Compound 1, Paucinone A] | + (“+” means the YFP/CFP emission ratio of compound treated HeLa-C3 cells was below 3 at 72 h.) | + (“+” means the YFP/CFP emission ratio of compound treated HeLa-C3 cells was below 3 at 72 h.) | + (“+” means the YFP/CFP emission ratio of compound treated HeLa-C3 cells was below 3 at 72 h.) | cell shrinkage | strong HeLa cell growth inhibiting effects |  |  |  |

Further lines, the compound ahead of its results:

| SMILES | IC50 (HeLa cells) | Apoptotic effect at 25 μM (HeLa-C3 cells [1]) | Apoptotic effect at 50 μM (HeLa-C3 cells [1]) | Apoptotic effect at 100 μM (HeLa-C3 cells [1]) | cell morphology (HeLa-C3 cells [2]; 25 μM, 24, 48 and 72 h) | HeLa cell growth inhibiting effect (HeLa cells) | caspase-3 activation (HeLa-C3 cells [1]; within 72 h at 100 μM and 50 μM) | cell morphology (HeLa-C3 cells [2]; 50 μM, 24, 48 and 72 h) | cell morphology (HeLa-C3 cells [2]; 500 nM, positive control) |
| --- | --- | --- | --- | --- | --- | --- | --- | --- | --- |
| CC(C)=CC[C@H]1C[C@@]23CC4(CCC(C)(C)C[C@]4(C)O)OC2=C(OC(=O)c2ccc(O)c(O)c2)C(=O)[C@](CC=C(C)C)(C3=O)C1(C)C (relative stereo) [Compound 3, Paucinone C] | 24.3 ± 0.6 µM | − (“−” means the YFP/CFP emission ratio of compound treated HeLa-C3 cells was above 3 at 72 h.) | + (“+” means the YFP/CFP emission ratio of compound treated HeLa-C3 cells was below 3 at 72 h.) | + (“+” means the YFP/CFP emission ratio of compound treated HeLa-C3 cells was below 3 at 72 h.) |  |  | could activate caspase-3 | cell shrinkage |  |
| CC(=O)O[C@H]1C(=O)[C@@]2(C)[C@H]([C@H](OC(=O)c3ccccc3)[C@]3(O)C[C@H](OC(=O)[C@H](O)[C@@H](NC(=O)c4ccccc4)c4ccccc4)C(C)=C1C3(C)C)[C@]1(OC(C)=O)CO[C@@H]1C[C@@H]2O [paclitaxel, reference compound] |  |  |  |  |  |  |  |  | typical cell shrinkage morphology |
